# Measured values from patent US10183030B2, “17α,21-diesters of cortexolone for use in the treatment of tumors” (COSMO TECHNOLOGIES LTD., priority 2014, dated 2019).
# Like-named read-outs stand apart in the source and are kept apart here.
# Experiments:
# [1] = tested on: Panc1 (AR+) pancreatic cancer cells; assay: ATP-dependent proliferation/viability assay, Panc1; format: cell-based; details: Homo sapiens, read-out: IC50
# Description: (§1) The experimental method consisted of: • 1. […] After 24 hours, 10 nM DHT (dihydrotestosterone) with or without anti-androgen compounds, or DMSO vehicle (negative control) was added to the cultures. • 3.
# (§2) Each compounds was titrated from 3 uM to 200 uM.
# [2] = tested on: MiaPaca2 (AR low) pancreatic cancer cells; assay: ATP-dependent proliferation/viability assay, MiaPaca2; format: cell-based; details: Homo sapiens, read-out: IC50
# Description: as §1, §2
# MDA-MB-231 TNBC cells = assay: In vitro proliferation / cytotoxic assay, MDA-MB-231; format: cell-based; details: Homo sapiens; MDA-MB-231 (ER−PR−GR++); 72 hours; Table VI; unit inferred; read-out: IC50 on breast cancer cells
# Description: After 72 hours incubation cell were harvested, lysed and viability determined using the cell titer glow assay for viability.
# HT29 colon cancer cells = assay: In vitro proliferation, HT29 (cancer cell panel); format: cell-based; details: Homo sapiens
# Description: as §2
# [3] = tested on: MiaPaca-2 xenograft tumor; assay: MiaPaca2 human pancreatic tumor xenograft in nude mice, subcutaneous treatment; format: in vivo, mouse
# Description: The test was carried out comparing the anti-tumor activity of cortexolone 17α-benzoate at two different dosages (8.0 mg/kg, corresponding approximately at 230 μM, and 40 mg/kg, corresponding approximately at 1150 μM), versus the vehicle (i.e. 0.4% (v/v) tween 80 and 0.5% (w/v) carboxymethylcellulose in normal saline) and versus the comparator Cyproterone Acetate at two different dosages (7.4 mg/kg and 37 mg/kg).
# 1×10^6 MiaPaca-2 cells suspended in matrigel were subcutaneously injected into 6 week old athymic nude mice.
# The treatment with the tested compounds, with the vehicle and with the comparative compound, was initiated after the tumor volume has reached 50 mm^3 after transplantation. All compounds were injected 100 μL/mouse subcutaneously of low dose solution (approximately 230 μM) or 100 μL/mouse of high dose solution (approximately 1150 μM) of cortexolone 17α-benzoate, vehicle and cyproterone acetate, respectively. Compounds and controls were administered subcutaneously daily for 28 days.
# Tumors were measured every 4 days with a digital caliper.
# The results are plotted in FIG. 1 as average change in tumor volume relative to the start of treatment. Tumor volume was calculated according to the formula 0.5236(r1)^2(r2) where r1<r2.
# The test was carried out comparing the anti-tumor activity of cortexolone 17α-valerate-21-propionate (CB-03-10) at two different dosages (approximately 8.6 mg/kg and 43 mg/kg) versus the vehicle (i.e. 0.4% (v/v) tween 80 and 0.5% (w/v) carboxymethylcellulose in normal saline) and versus the comparator Cyproterone Acetate at two different dosages (7.4 mg/kg and 37 mg/kg).
# The treatment with the tested compound, with the vehicle and with the comparative compound was initiated after the tumor has reached a volume of 50 mm^3 after implantation, injecting subcutaneously 100 μL/mouse of low dose solution (approximately 230 μM) or 100 μL/mouse of high dose solution (approximately 1150 μM) of cortexolone 17α-valerate-21-propionate (CB-03-10), vehicle and cyproterone acetate, respectively. Compounds and controls were administered subcutaneously daily for 28 days.
# The results are plotted in FIG. 2 as average change in tumor volume relative to the start of treatment. Tumor volume was calculated according to the formula 0.5236(r1)^2(r2) where r1<r2.
# CPA a well-known anti-androgen was used as control. Briefly 1×10^6 MiaPaca2 cells suspended in matrigel were subcutaneously (SC) injected into 6 week old male athymic nude mice. Tumors were measured every 4 days with a digital caliper. Tumor volume was calculated according to the formula: 0.5236(r1) 2(r2) where r1<r2. Treatment with CB-03-10 and controls compounds was initiated after the tumor had reached 50 mm^3. Compounds diluted in DMSO/2-hydroxypropyl b-cyclodextrin (vehicle) were injected subcutaneously (SC) daily (100 μL/mouse) at the concentration of 40 mg/Kg daily for 28 consecutive days.
# wild type AR (AR-LBD) = target: T1, wild type AR (AR-LBD) (Rattus norvegicus, UniProt P15207); assay: AR competition binding assay (Polar Screen, fluorescence polarization); details: displacement of Fluormone AL Green from AR-LBD; read-out: affinity for AR receptor (IC50 molar)
# T1 construct: purchased life Technologies
# Description: Briefly, the AR was added to a fluorescent androgen ligand (Fluormone™ AL Green) to from the complex AR-LBD. Competitors displaced the fluorescent Fluormone™ AL Green ligand from the AR-LBD causing the fluorescent ligand to tumble rapidly during its fluorescence lifetime, resulting in a low polarization value. Non competitors will not displace the fluorescent ligand from the complex, so the polarization value remains high. The shift in polarization value in the presence of test compounds is used to determine relative affinity of test compounds for AR-LBD.
# MiaPaca2 cells = assay: Annexin V / propidium iodide apoptosis assay; format: cell-based, human; details: 24 hours, control 11%
# Description: CB-03-10 was evaluated to determine if the mechanism of cytotoxicity on cancer cell lines was mediated by apoptosis and cell cycle arrest. Cancer cell lines were seeded in 6-well flat bottom plates. After 24 hours test compounds or DMSO vehicle (negative control) were added. After an additional 24 hours cells were scraped and stained with fluorescein conjugated Annexin V and propidium iodide and analyzed by flow cytometry.
# [4] = tested on: Caspase 8, 9 and 3/7 in MiaPaca2 cells; assay: Caspase activity in MiaPaca2 cells; format: cell-based, human
# Description: From previous studies was determined that CB-03-10 induces apoptosis using Annexin V staining in MiaPaca2 cells. To better analyze the phenomenon the enzymatic activity of Caspase 8 (initiator caspase for Extrinsic Pathway) and Caspase 9 (initiator caspase for Intrinsic Pathway) and of Caspases 3 and 7 (effector caspases) were measured.
# After 24 hours test compounds were added to cells, Gemcitabine (a known pancreatic cancer chemotherapeutic agent) and DMSO were used as positive and negative control, respectively. After 8, 24, & 48 hours incubation with test compounds, cells were lysed in buffer containing the caspase 3/7 or 8 or 9 substrate and a stable luciferase in proprietary buffers. The lysates were transferred to white opaque plates before measuring luminescence in a Tecan Safire instrument. Parallel plates treated identically, were used to determine viable cells. All caspase activities were corrected for the number of viable cells.
# [5] = In vitro metabolism in rat plasma; format: in vitro ADME; details: 37° C.; FIG. 13
# Description: To obtain some insights on the metabolism of CB-03-10 in human and rat plasma, a specific assay was designed. Briefly the compound was incubated at different time in human and rat plasma at 37° C. After incubation the samples were tested for presence of the intact compound by liquid chromatography.
# LNCaP cells = assay: LNCaP cell viability in the PSA secretion experiment; format: cell-based; details: Homo sapiens, 48 hours, same cells as PSA assay
# Description: Prostate-specific antigen, or PSA, is a protein produced by cells of the prostate gland. The PSA test measures the level of PSA in a person's blood. The blood level of PSA is often elevated in men with prostate cancer and it used as surrogate marker to test prostate cancer progression in human population. […] After 48 hours incubation with test compounds, supernatants were harvested and tested with an Elisa assay for PSA and same cells were lysed for cell viability assessment.
# [6] = Example 22, 40 mg/Kg SC daily for 28 days
# T1 sequence (P15207 651-882 limits assumed): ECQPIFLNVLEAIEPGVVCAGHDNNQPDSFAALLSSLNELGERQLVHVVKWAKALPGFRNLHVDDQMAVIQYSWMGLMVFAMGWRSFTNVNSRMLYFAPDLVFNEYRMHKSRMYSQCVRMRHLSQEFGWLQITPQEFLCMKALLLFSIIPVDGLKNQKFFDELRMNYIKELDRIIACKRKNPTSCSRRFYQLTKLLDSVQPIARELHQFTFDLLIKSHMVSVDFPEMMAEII
structure (smiles),measurement,setting,value
"CCCCC(=O)O[C@]1(C(=O)COC(=O)CC)CC[C@H]2[C@@H]3CCC4=CC(=O)CC[C@]4(C)[C@H]3CC[C@@]21C [CB-03-10, cortexolone 17α-valerate-21-propionate]",IC50,"[1]; PANC-1, 72 h, Panc1, 10 nM DHT, 3 days, Examples 3-4, Experiment 1",66 µM
same,IC50,"[1]; PANC-1, Panc1, Example 7, Experiment 1",68 µM
same,IC50,"[2]; MIA PaCa-2, 72 h, MiaPaca2, 10 nM DHT, 3 days, Examples 3-4, Experiment 1",43 µM
same,IC50,"[2]; MIA PaCa-2, MiaPaca2, Example 7, Experiment 1",34 µM
same,IC50,MDA-MB-231 TNBC cells,106 µM
same,IC50,"HT29 colon cancer cells; HT-29, read-out: In vitro proliferation IC50 (micro Molar)",14 µM
same,IC50,"HT29 colon cancer cells; HT-29, read-out: in vitro proliferation IC50 (μ/M)",14 µM
same,"pancreatic tumor size increase relative to the initial size, during the treatment period","[3]; Example 22, 40 mg/Kg SC daily for 28 consecutive days",less than 5 fold
same,Median survival,[3]; [6],70 days
same,tumor size increase 14 days after treatment was stopped,[3]; [6],6 fold
same,pancreatic tumor size increase relative to the start of treatment,"[3]; Examples 5 and 6, SC daily for 28 days, test compounds at high dose (approximately 1150 μM, 100 μL/mouse), Cyproterone Acetate treatment groups 7.4 and 37 mg/kg",less than 5 fold
same,IC50,wild type AR (AR-LBD),1.1 µM
same,"cells in apoptosis (early and late), total",MiaPaca2 cells,28%
same,Caspase 3/7 induction,"[4]; 8, 24, 48 hours",already at 8 hours at and a really high level after 48 hours incubation
same,increase in Caspase 8 and 9 activity compared to control,"[4]; 20 or 50 μM, 8, 24, 48 hours, corrected for viable cells",≤ 7 fold
same,degradation in rat plasma,[5],degraded more rapidly in rat compared to human plasma
same,IC50,LNCaP cells,11 µM
